In US12492187B2, “Factor XI activation inhibitors” (Merck Sharp & Dohme LLC, priority 2020, dated 2025):
Structures can show the parent of a compound that is named as a salt.

target: T1, Human coagulation factor (F)XI (Homo sapiens, UniProt P03951); experiment: Inhibition of FXIIa mediated activation of FXI (activation of human Factor XI to XIa by human Factor α-XIIa); type: biochemical; conditions: human FXI pre-incubated with compound 30 min at 22° C., activation by human FXIIa 60 min, z-GPR-AFC substrate, fluorescence 405/510 nm, 4 parameter logistic fit; read-out: Inhibition of FXIIa meditated activation of FXI
T1 construct: purchased Haematologic Technologies Inc. (FXI); Enzyme Research Laboratories (FXIIa) HCXI-150 (FXI); HFXIIa (FXIIa)
T1 sequence (P03951 19-625): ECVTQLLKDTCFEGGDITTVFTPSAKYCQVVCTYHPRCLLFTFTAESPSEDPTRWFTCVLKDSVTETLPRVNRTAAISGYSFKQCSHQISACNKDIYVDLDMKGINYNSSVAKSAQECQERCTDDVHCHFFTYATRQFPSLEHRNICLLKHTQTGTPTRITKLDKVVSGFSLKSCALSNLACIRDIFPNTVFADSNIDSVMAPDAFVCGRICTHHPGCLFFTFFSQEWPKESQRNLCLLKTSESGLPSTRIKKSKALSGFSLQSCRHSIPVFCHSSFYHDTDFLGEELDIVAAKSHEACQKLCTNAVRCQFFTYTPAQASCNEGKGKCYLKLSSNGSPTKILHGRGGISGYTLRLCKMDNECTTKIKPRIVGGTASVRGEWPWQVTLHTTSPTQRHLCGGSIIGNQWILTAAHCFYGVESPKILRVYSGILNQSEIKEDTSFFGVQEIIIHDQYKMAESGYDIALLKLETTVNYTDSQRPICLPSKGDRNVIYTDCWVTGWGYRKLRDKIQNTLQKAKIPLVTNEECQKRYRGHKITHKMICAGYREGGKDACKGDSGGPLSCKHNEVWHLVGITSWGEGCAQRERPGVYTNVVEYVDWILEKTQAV
Method: Inhibition of FXIIa Mediated Activation of FXI
Activation of Human Factor XI to XIa by Human Factor α-XIIa
Assay was performed in 50 mM HEPES, 150 mM NaCl, 5 mM CaCl2, 0.1% PEG-8000, pH 7.4 buffer in black, flat-bottom, polystyrene microplates (Corning, Cat #3573). Serial dilutions (10-point, 3.333-fold) of the test compounds delivered as 10 mM DMSO stocks were prepared in the Labcyte Echo-qualified PP 384 well microplates (Labcyte, Cat #P-05525). Human coagulation factor (F)XI (Haematologic Technologies Inc., Cat #HCXI-150, concentration 46 nM, 19.5 uL) was pre-incubated with 0.5 uL of the test compounds for 30 min at 22° C. The activation was initiated by addition of 10 uL of human coagulation factor (F)XIIa (Enzyme Research Laboratories, Cat #HFXIIa, concentration 30 nM) and reaction proceeded for 60 min at 22° C., after which it was quenched by addition of a selective inhibitor of FXIIa (Compound 54 in WO2018093695) concentration 600 uM in DMSO, 1 uL). 10 min after the quench, 29 uL of z-GPR-AFC substrate (Sigma, Cat #C0980-10MG, concentration 200 uM) was added into each well and the detection reaction proceeded for 60 min at 22° C. Fluorescence at 405/510 nm was measured in end-point mode using an Envision plate-reader (Perkin Elmer). IDBS Activity Base XE (ABase) analysis using 4 parameter logistic fit was performed to determine Minimum, Maximum, EC50, and Slope Factor for each compound.

Point of comparison: `Cc1cnc(C(=O)N2CCC(C#N)(c3ccccc3)CC2)cc1C(=O)N1CCC(C)(N2CCC(F)(F)C2)CC1` [Example 3, 1-(4-(4-(3,3-difluoropyrrolidin-1-yl)-4-methylpiperidine-1-carbonyl)-5-methylpicolinoyl)-4-phenylpiperidine-4-carbonitrile], EC50 61.8 nM. Against it:
- Cc1nc(C(=O)N2CCC(C#N)(c3ccccc3)CC2)cc(C(=O)N2CCC(Cc3ccccc3)CC2)c1C [Example 30, 1-[4-(4-benzylpiperidine-1-carbonyl)-5,6-dimethyl-pyridine-2-carbonyl]-4-phenyl-piperidine-4-carbonitrile] — within 1.5-fold, 47.8 nM
- Cc1cnc(C(=O)N2CCC(C#N)(c3ccccc3)CC2)cc1C(=O)N1CCN(C2CCCC2)C(=O)C1 [Example 11, 1-(4-(4-cyclopentyl-3-oxopiperazine-1-carbonyl)-5-methylpicolinoyl)-4-phenylpiperidine-4-carbonitrile] — 2.7-fold higher, 164 nM
- Cc1cnc(C(=O)N2CCC(C#N)(c3ccccc3)CC2)cc1C(=O)N1CCC(N2CCC(F)(F)C2)CC1 [Example 1, 1-(4-(4-(3,3-difluoropyrrolidin-1-yl)piperidine-1-carbonyl)-5-methylpicolinoyl)-4-phenylpiperidine-4-carbonitrile, 2,2,2-trifluoroacetate salt] — within 1.5-fold, 42 nM
- Cc1cnc(C(=O)N2CCC(C#N)(c3ccccc3)CC2)cc1C(=O)N1CCC(Cc2ccccc2)CC1 [Example 10, 1-(4-(4-benzylpiperidine-1-carbonyl)-5-methylpicolinoyl)-4-phenylpiperidine-4-carbonitrile] — within 1.5-fold, 74.1 nM
- CC(C)(C)C1CCN(C(=O)c2cc(C(=O)N3CCC(C#N)(c4ccccc4)CC3)ncc2C2CC2)CC1 [Example 15, 1-(4-(4-(tert-butyl)piperidine-1-carbonyl)-5-cyclopropylpicolinoyl)-4-phenylpiperidine-4-carbonitrile, 2,2,2-trifluoroacetate salt] — within 1.5-fold, 42.5 nM
- COc1ccc2c(c1)OC1CN(C(=O)c3cc(C(=O)N4CCC(C#N)(c5ccccc5)CC4)ncc3C)CCC21 (stereo not shown) [Example 21, 1-[4-(7-methoxy-3,4,4a,9a-tetrahydro-1H-benzofuro[2,3-c]pyridine-2-carbonyl)-5-methyl-pyridin-1-ium-2-carbonyl]-4-phenyl-piperidine-4-carbonitrile; 2,2,2-trifluoroacetate] — 3.2-fold higher, 199 nM
- Cc1nc(C(=O)N2CCC(C#N)(c3ccccc3)CC2)cc(C(=O)N2CCC(N3CCC(F)(F)C3)CC2)c1C [Example 26, 1-[4-[4-(3,3-difluoropyrrolidin-1-ium-1-yl)piperidine-1-carbonyl]-5,6-dimethyl-pyridine-2-carbonyl]-4-phenyl-piperidine-4-carbonitrile; 2,2,2-trifluoroacetate] — 1.7-fold higher, 105 nM
- Cc1cnc(C(=O)N2CCC(C#N)(c3ccccc3)CC2)cc1C(=O)N1CCC2c3c(F)cc(F)cc3OC2C1 (stereo not shown) [Example 19, 1-(4-(5,7-difluoro-1,2,3,4,4a,9a-hexahydrobenzofuro[2,3-c]pyridine-2-carbonyl)-5-methylpicolinoyl)-4-phenylpiperidine-4-carbonitrile] — within 1.5-fold, 49.3 nM
- Cc1cnc(C(=O)N2CCC(C#N)(c3ccccc3)CC2)cc1C(=O)N1CC(c2cccc(F)c2)C1 [Example 4, 1-(4-(3-(3-fluorophenyl)azetidine-1-carbonyl)-5-methylpicolinoy1)-4-phenylpiperidine-4-carbonitrile] — 3.2-fold higher, 197 nM
- Cc1cnc(C(=O)N2CCC(C#N)(c3ccccc3)CC2)cc1C(=O)N1CCC2c3ccc(Cl)cc3OC2C1 (stereo not shown) [Example 23, 1-[4-(7-chloro-3,4,4a,9a-tetrahydro-1H-benzofuro[2,3-c]pyridine-2-carbonyl)-5-methyl-pyridin-1-ium-2-carbonyl]-4-phenyl-piperidine-4-carbonitrile; 2,2,2-trifluoroacetate] — within 1.5-fold, 75.1 nM
- Cc1cnc(C(=O)N2CCC(C#N)(c3ccccc3)CC2)cc1C(=O)N1CC(c2ccc(F)cc2)C1 [Example 9, 1-(4-(3-(4-fluorophenyl)azetidine-1-carbonyl)-5-methylpicolinoyl)-4-phenylpiperidine-4-carbonitrile] — 1.7-fold higher, 107 nM
- Cc1nc(C(=O)N2CCC(C#N)(c3ccccc3)CC2)cc(C(=O)N2CCC(c3ccccc3)CC2)c1C [Example 32, 1-[5,6-dimethyl-4-(4-phenylpiperidine-1-carbonyl)pyridine-2-carbonyl]-4-phenyl-piperidine-4-carbonitrile] — 1.7-fold lower, 36.6 nM
- N#CC1(c2ccccc2)CCN(C(=O)c2cc(C(=O)N3CCC(N4CCC(F)(F)C4)CC3)c(C(F)(F)F)cn2)CC1 [Example 18, 1-[4-[4-(3,3-difluoropyrrolidin-1-ium-1-yl)piperidine-1-carbonyl]-5-(trifluoromethyl)pyridine-2-carbonyl]-4-phenyl-piperidine-4-carbonitrile; 2,2,2-trifluoroacetate] — 1.5-fold lower, 40 nM
- Cc1nc(C(=O)N2CCC(C#N)(c3ccccc3)CC2)cc(C(=O)N2CCC(C(C)(C)C)CC2)c1C [Example 27, 1-[4-(4-tert-butylpiperidine-1-carbonyl)-5,6-dimethyl-pyridine-2-carbonyl] -4-phenyl-piperidine-4-carbonitrile] — 2.5-fold lower, 25.1 nM
- Cc1cnc(C(=O)N2CCC(C#N)(c3ccccc3)CC2)cc1C(=O)N1CCC2c3cc(F)c(F)cc3OC2C1 (stereo not shown) [Example 24, 1-[4-(6,7-difluoro-3,4,4a,9a-tetrahydro-1H-benzofuro[2,3-c]pyridine-2-carbonyl)-5-methyl-pyridin-1-ium-2-carbonyl]-4-phenyl-piperidine-4-carbonitrile; 2,2,2-trifluoroacetate] — within 1.5-fold, 62.2 nM
- Cc1cnc(C(=O)N2CCC(C#N)(c3ccccc3)CC2)cc1C(=O)N1CCC2c3ccc(C#N)cc3OC2C1 (stereo not shown) [Example 22, 2-[2-(4-cyano-4-phenyl-piperidine-1-carbonyl)-5-methyl-pyridin-1-ium-4-carbonyl]-3,4,4a,9a-tetrahydro-1H-benzofuro[2,3-c]pyridine-7-carbonitrile; 2,2,2-trifluoroacetate] — within 1.5-fold, 54.4 nM
- Cc1cnc(C(=O)N2CCC(C#N)(c3ccccc3)CC2)cc1C(=O)N1CC[C@@H]2c3ccccc3O[C@@H]2C1 (racemic) [Example 2, 1-(4-((4aR,9aS)-1,2,3,4,4a,9a-hexahydrobenzofuro[2,3-c]pyridine-2-carbonyl)-5-methylpicolinoyl)-4-phenylpiperidine-4-carbonitrile and 1-(4-((4aS,9aR)-1,2,3,4,4a,9a-hexahydrobenzofuro[2,3-c]pyridine-2-carbonyl)-5-methylpicolinoyl)-4-phenylpiperidine-4-carbonitrile] — 1.6-fold lower, 39.4 nM
- N#CC1(c2ccccc2)CCN(C(=O)c2cc(C(=O)N3CCC4c5ccccc5OC4C3)c(C(F)(F)F)cn2)CC1 (stereo not shown) [Example 16, 1-(4-(1,2,3,4,4a,9a-hexahydrobenzofuro[2,3-c]pyridine-2-carbonyl)-5-(trifluoromethyl)picolinoyl)-4-phenylpiperidine-4-carbonitrile] — 1.7-fold higher, 106 nM
- Cc1nc(C(=O)N2CCC(C#N)(c3ccccc3)CC2)cc(C(=O)N2CCC(C)(c3ccccc3)CC2)c1C [Example 31, 1-[5,6-dimethyl-4-(4-methyl-4-phenyl-piperidine-1-carbonyl)pyridine-2-carbonyl]-4-phenyl-piperidine-4-carbonitrile] — 2-fold higher, 124 nM
- Cc1cnc(C(=O)N2CCC(C#N)(c3ccccc3)CC2)cc1C(=O)N1CC2CC(C1)C2c1ccccc1 (stereo not shown) [Example 13, 1-(5-methyl-4-(6-phenyl-3-azabicyclo[3.1.1]heptane-3-carbonyl)picolinoyl)-4-phenylpiperidine-4-carbonitrile] — within 1.5-fold, 66.7 nM
- Cc1cnc(C(=O)N2CCC(C#N)(c3ccccc3)CC2)cc1C(=O)N(CCC1(O)CCCC1)C1CCC1 [Example 7, 2-(4-cyano-4-phenylpiperidine-1-carbonyl)-N-cyclobutyl-N-(2-(1-hydroxycyclopentyl)ethyl)-5-methylisonicotinamide] — within 1.5-fold, 43.5 nM
- Cc1nc(C(=O)N2CCC(C#N)(c3ccccc3)CC2)cc(C(=O)N2CCN(C3(c4ccccc4)CC3)CC2)c1C [Example 29, 1-[5,6-dimethyl-4-[4-(1-phenylcyclopropyl)piperazine-1-carbonyl]pyridine-2-carbonyl]-4-phenyl-piperidine-4-carbonitrile] — 1.5-fold lower, 41.1 nM
- Cc1cnc(C(=O)N2CCC(C#N)(c3ccccc3)CC2)cc1C(=O)N1CC2CC(C1)C2(F)c1ccccc1 (stereo not shown) [Example 12, 1-(4-(6-fluoro-6-phenyl-3-azabicyclo[3.1.1]heptane-3-carbonyl)-5-methylpicolinoyl)-4-phenylpiperidine-4-carbonitrile] — 2.2-fold higher, 137 nM
- Cc1cnc(C(=O)N2CCC(C#N)(c3ccccc3)CC2)cc1C(=O)N1CCC(CCc2ccccc2)CC1 [Example 6, 1-(5-methyl-4-(4-phenethylpiperidine-1-carbonyl)picolinoyl)-4-phenylpiperidine-4-carbonitrile] — 2.4-fold higher, 150 nM
